Laboratory results as given in article PMC7614232 (Organic & biomolecular chemistry, 2022).

Legend:
[1] = target: T1, GMIIb (Golgi α-mannosidase) (Drosophila melanogaster, UniProt Q9VF33); experiment: α-mannosidase inhibition assay with pNP-Man, GMIIb; assay type: biochemical; conditions: for SI^a = IC50(LManII)/IC50(GMIIb): selectivity index
T1 sequence (Q9VF33 31-1249): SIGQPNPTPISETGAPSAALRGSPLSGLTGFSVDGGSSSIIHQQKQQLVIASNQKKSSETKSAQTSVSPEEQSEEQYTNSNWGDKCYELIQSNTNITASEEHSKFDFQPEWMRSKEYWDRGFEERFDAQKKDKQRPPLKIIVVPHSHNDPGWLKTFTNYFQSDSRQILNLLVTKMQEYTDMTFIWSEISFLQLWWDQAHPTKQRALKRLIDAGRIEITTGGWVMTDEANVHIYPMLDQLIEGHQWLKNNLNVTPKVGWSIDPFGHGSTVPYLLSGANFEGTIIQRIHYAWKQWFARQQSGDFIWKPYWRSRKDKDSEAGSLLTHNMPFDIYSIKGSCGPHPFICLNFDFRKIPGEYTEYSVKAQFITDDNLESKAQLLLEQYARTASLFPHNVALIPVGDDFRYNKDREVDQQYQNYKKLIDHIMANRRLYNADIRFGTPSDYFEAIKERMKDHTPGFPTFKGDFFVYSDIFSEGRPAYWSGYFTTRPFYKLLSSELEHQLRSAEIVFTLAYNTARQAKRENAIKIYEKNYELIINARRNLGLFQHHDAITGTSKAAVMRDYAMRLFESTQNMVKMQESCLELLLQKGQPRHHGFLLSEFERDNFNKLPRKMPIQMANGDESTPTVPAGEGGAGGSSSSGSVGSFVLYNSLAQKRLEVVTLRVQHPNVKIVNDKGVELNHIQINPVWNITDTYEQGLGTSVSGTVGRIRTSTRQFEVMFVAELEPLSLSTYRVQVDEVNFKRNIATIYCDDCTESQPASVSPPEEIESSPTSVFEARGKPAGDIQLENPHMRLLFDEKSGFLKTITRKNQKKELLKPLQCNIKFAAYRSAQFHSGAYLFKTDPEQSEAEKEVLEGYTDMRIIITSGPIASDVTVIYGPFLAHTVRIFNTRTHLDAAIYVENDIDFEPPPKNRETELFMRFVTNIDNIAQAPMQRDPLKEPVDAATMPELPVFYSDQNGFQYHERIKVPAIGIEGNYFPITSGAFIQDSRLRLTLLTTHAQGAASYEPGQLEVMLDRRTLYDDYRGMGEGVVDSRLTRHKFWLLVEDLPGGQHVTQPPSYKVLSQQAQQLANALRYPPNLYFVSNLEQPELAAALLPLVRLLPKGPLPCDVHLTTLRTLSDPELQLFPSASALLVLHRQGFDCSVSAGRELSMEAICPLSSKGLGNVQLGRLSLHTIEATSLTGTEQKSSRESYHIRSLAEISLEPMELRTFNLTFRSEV

[2] = target: T2, AMAN-2 (Golgi α-mannosidase) (Caenorhabditis elegans, UniProt Q2PJ74); experiment: α-mannosidase inhibition assay with pNP-Man, AMAN-2; assay type: biochemical; conditions: for SI^b = IC50(JBMan)/IC50(AMAN-2): selectivity index
T2 sequence (Q2PJ74 27-1145): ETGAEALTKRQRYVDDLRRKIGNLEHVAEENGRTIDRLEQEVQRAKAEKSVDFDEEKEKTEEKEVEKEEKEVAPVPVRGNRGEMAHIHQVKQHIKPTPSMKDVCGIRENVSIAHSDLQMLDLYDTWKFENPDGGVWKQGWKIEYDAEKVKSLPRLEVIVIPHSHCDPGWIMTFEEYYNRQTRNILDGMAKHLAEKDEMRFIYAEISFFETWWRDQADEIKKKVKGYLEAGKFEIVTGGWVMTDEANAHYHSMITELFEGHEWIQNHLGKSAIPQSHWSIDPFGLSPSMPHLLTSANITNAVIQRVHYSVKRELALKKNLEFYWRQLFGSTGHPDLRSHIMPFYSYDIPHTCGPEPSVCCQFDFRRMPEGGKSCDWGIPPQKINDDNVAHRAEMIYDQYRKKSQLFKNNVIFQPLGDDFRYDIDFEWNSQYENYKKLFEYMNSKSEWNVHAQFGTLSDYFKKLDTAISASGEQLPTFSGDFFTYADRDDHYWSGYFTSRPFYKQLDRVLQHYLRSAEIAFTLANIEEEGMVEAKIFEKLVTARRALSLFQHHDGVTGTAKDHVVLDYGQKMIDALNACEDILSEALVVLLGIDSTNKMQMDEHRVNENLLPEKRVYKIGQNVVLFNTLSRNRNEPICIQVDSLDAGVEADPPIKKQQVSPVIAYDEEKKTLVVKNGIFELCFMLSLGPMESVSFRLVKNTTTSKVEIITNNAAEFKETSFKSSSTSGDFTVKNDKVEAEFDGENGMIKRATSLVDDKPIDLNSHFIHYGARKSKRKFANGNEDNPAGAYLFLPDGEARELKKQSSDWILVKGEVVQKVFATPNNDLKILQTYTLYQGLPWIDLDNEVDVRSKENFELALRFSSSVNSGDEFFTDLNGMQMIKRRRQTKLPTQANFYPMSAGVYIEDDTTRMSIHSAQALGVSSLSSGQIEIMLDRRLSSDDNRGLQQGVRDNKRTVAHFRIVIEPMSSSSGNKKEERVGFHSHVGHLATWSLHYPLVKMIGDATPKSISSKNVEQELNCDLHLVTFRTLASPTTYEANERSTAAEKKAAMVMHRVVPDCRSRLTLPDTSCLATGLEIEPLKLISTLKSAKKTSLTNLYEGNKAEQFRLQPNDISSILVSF

[3] = in aqueous solution; cited from earlier work
[4] = test system: dGMII (Golgi α-mannosidase II); conditions: previous pKa calculations; cited from earlier work

SMILES	SI^a = IC50(LManII)/IC50(GMIIb) [1]	SI^b = IC50(JBMan)/IC50(AMAN-2) [2]	Ki ([1]; read-out: Ki GMIIb, Dixon plots, pNP-Man 0.5-4 mM, pH 6.0) [nM]	Ki ([2]; read-out: Ki AMAN-2, Dixon plots, pNP-Man 0.5-4 mM, pH 6.0) [nM]	pKa [3]	pKa bound in complex with dGMII [4]
Cl.OC[C@H]1NC[C@@H](O)[C@H]1O [Compound 6, 1,4-Dideoxy-1,4-imino-d-lyxitol hydrochloride]	8	5	–	–	–	–
OC[C@@H](O)[C@H]1NC[C@@H](O)[C@H]1O [DIM, 1,4-dideoxy-1,4-imino-D-mannitol, reference compound]	13	1	130	680	–	–
O[C@H]1[C@H]2[C@H](O)CCCN2C[C@H]1O [Swainsonine, (1S,2R,8R,8aR)-trihydroxy-indolizidine]	–	–	–	–	7.5	5.0
